One experiment relates to mouse locomotor activity. The experiment in a line: Locomotor activity of mice, drug alone. The experiment is classed as in vivo, Male Swiss-Webster mice. Particulars: for percent suppression of locomotion: alone; for effect on spontaneous exploratory activity (in words): mice. The method, then:
Suspensions are ultrasonicated for 3 minutes.

For another experiment, the target named is T1, adenosine A1 receptor (Rattus norvegicus, UniProt P25099).
T1 construct: from tissue; host or cells: rat whole brain membranes
T1 sequence (P25099 1-326): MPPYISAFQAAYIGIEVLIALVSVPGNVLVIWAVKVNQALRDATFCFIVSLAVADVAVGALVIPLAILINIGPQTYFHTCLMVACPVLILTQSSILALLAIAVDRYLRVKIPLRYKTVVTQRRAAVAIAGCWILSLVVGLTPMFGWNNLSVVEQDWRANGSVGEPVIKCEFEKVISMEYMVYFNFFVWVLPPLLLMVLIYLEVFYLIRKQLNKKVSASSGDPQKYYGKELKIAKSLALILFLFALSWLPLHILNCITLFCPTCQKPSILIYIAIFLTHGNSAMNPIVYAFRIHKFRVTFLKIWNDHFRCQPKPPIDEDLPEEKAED
The experiment is described as follows: [3H]-N6-cyclohexyladenosine binding to rat whole brain membranes (A1 affinity, RBA-1).

For a further experiment, the target named is T2, adenosine A2 receptor (Rattus norvegicus, UniProt P30543).
T2 construct: from tissue; host or cells: rat striatal membranes
T2 sequence (P30543 whole entry): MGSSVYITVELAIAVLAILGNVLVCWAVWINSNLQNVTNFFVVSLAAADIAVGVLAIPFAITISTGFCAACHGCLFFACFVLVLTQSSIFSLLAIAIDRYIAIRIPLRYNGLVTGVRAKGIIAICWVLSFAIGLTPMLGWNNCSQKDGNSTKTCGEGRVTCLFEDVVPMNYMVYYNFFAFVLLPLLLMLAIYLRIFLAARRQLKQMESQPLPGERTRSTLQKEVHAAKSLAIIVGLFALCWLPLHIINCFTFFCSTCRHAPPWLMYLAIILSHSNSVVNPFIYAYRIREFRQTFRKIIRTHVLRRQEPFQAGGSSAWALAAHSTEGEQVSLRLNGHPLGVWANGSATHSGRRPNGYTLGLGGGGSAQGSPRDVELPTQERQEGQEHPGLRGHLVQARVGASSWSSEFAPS
The experiment is described as follows: [3H]-NECA binding to rat striatal membranes (A2 affinity, RBA-2).

As for `OC[C@H]1O[C@@H](n2cnc3c(NC4CCCC4)ncnc32)[C@H](O)[C@@H]1O` [CPA, N^6 -cyclopentyladenosine], the “percent suppression of locomotion” value in the experiment with mouse locomotor activity (CPA 2 mg/kg IP) was found to be 94%. In the experiment on mouse locomotor activity, the “effect on spontaneous exploratory activity (in words)” value is recorded as “inhibition of spontaneous exploratory activity”.

With `Nc1nc(Nc2ccccc2)nc2c1ncn2[C@@H]1O[C@H](CO)[C@@H](O)[C@H]1O` [CV-1808, 2-anilinoadenosine], in the experiment with mouse locomotor activity (CV-1808 8 mg/kg IP), the “percent suppression of locomotion” value is 83%. Further, the “effect on spontaneous exploratory activity (in words)” value in the experiment with mouse locomotor activity was “inhibition of spontaneous exploratory activity”.

As for `CCCn1c(=O)c2[nH]c(C3CCSC3)nc2n(CCC)c1=O` (stereo not shown) [Example 1, 1,3-Dipropyl-8-(3-tetrahydrothienyl)xanthine], the IC50 on adenosine A1 receptor worked out at 2 nM; at adenosine A2 receptor, 622 nM.

As to `CCCn1c(=O)c2[nH]c(C3CCCO3)nc2n(CCC)c1=O` (stereo not shown) [Example 2, 1,3-Dipropyl-8-(2-tetrahydrofuranyl)xanthine], the IC50 came to 20 nM on adenosine A1 receptor and 3100 nM on adenosine A2 receptor.

Consider `CCCn1c(=O)c2[nH]c(C3CCOC3)nc2n(CCC)c1=O` (stereo not shown) [Example 3, 1,3-Dipropyl-8-(3-tetrahydrofuranyl)xanthine], for which the IC50 turned out to be 28 nM at adenosine A1 receptor and 4650 nM on adenosine A2 receptor.

`Cn1c(=O)c2nc(C3CCOC3)[nH]c2n(C)c1=O` (stereo not shown) [Example 4]: the IC50 amounted to 400 nM at adenosine A1 receptor and 2000 nM on adenosine A2 receptor.

`CCCn1c(=O)c2[nH]c(C3CCCS3)nc2n(CCC)c1=O` (stereo not shown) [Example 5, 1,3-Dipropyl-8-(2-tetrahydrothienyl)xanthine]: the IC50 on adenosine A1 receptor came to 88 nM.

What is called IC50 is the concentration that gives 50% inhibition. A high value points to weaker potency in that assay.
